Laboratory results taken from patent US20250222146A1, “Radiopharmaceuticals Targeting Somatostatin Receptor 2 and Uses Thereof” (RayzeBio, Inc., priority 2023, published 2025).
Like-named read-outs stand apart in the source and are kept apart here. Numbered stars: 1 amine (or outer) side, 2 acyl side, 3 side chain; on linkers, the order of the positions; unused ones are H or OH. Square brackets hold non-standard residues; d marks the D form. Peptide text beside a SMILES is read from it. * marks the point of attachment. DOTA(Lu)NH(CH2)6NHCOCH2 = O=C(CN1CCN2CCN3CCN(CC1)CC(=O)[O][Lu]([O]C(=O)C2)[O]C(=O)C3)NCCCCCCNC(=O)C*; X6 = O=C(CN1CCN2CCN3CCN(CC1)CC(=O)[O][Lu]([O]C(=O)C2)[O]C(=O)C3)NCCOCCOCCOCCNC(=O)C*; X17 = O=C(CN1CCN2CCN3CCN(CC1)CC(=O)[O][Lu]([O]C(=O)C2)[O]C(=O)C3)NCCNC(=O)C*; DOTA(Lu) = O=C1CN2CCN3CCN(CC(=O)*)CCN(CC2)CC(=O)[O][Lu]([O]1)[O]C(=O)C3; Ala(piperidin-4-yl) = O=C([C@H](CC1CCN([*:3])CC1)N[*:1])[*:2]; dTrp(βS-Me) = C[C@@H](c1c[nH]c2ccccc12)[C@@H](N)C(=O)O; βMeTrp(2S,3R) = C[C@H](c1c[nH]c2ccccc12)[C@H](N)C(=O)O; dTrp(4-Me) = Cc1cccc2[nH]cc(C[C@@H](N)C(=O)O)c12; X19 = O=C([C@H](Cc1c[nH]c2ccncc12)N[*:1])[*:2]; Phe(4-CH2NH2) = NCc1ccc(C[C@H](N)C(=O)O)cc1; Lys(iPr) = CC(C)NCCCC[C@H](N)C(=O)O; mTyr = N[C@@H](Cc1cccc(O)c1)C(=O)O; NMehCys = CN[C@@H](CCS)C(=O)O; NMeK = CN[C@@H](CCCCN)C(=O)O; Ethyl(2-NH2) = NCC*

Target: SSTR2 (Homo sapiens, UniProt P30874)
Assay: SSTR binding affinity by radioligand binding competition assay ([125I]-Tyr11-Somatostatin, membrane extracts)
Conditions: radioligand competition, [125I]-Tyr11-Somatostatin 0.1 nM, membrane extracts, Ki from IC50 by Cheng Prusoff

Chain of SSTR2 (P30874 whole entry): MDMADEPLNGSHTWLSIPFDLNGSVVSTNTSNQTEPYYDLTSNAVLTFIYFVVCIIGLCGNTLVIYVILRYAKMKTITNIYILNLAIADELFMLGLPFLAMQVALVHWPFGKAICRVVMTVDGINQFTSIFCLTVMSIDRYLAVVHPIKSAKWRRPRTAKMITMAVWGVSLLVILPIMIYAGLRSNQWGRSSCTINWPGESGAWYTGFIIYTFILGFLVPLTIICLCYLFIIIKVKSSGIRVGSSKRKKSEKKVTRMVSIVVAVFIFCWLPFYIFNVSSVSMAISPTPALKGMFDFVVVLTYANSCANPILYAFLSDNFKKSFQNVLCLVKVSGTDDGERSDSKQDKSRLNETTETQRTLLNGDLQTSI

| Structure (SMILES) | Ki (read-out: SSTR2 Ki) [nM] | Ki (SSTR2 Ki) [nM] |
| --- | --- | --- |
| C[C@@H](O)[C@@H]1NC(=O)[C@H](CCCCN)NC(=O)[C@@H](Cc2c[nH]c3ccccc23)NC(=O)[C@H](Cc2ccc(O)cc2)NC(=O)[C@H](CC(=O)NCCCCCCNC(=O)CN2CCN3CCN4CCN(CC2)CC(=O)[O][Lu]([O]C(=O)C3)[O]C(=O)C4)N(C)C(=O)[C@H](Cc2ccccc2)NC1=O [RB-0005895] | 3.33 to 10 | – |
| C[C@@H](O)[C@@H]1NC(=O)[C@H](COCCN)NC(=O)[C@@H](Cc2c[nH]c3ccccc23)NC(=O)[C@H](Cc2ccc(O)cc2)NC(=O)[C@H](CCSCC(=O)NCCCCCCNC(=O)CN2CCN3CCN4CCN(CC2)CC(=O)[O][Lu]([O]C(=O)C3)[O]C(=O)C4)N(C)C(=O)[C@H](Cc2ccccc2)NC1=O [RB-0005899] (cyclo(F[NMehCys](DOTA(Lu)NH(CH2)6NHCOCH2)Y[dW]S(Ethyl(2-NH2))T)) | < 1 | – |
| C[C@@H](O)[C@@H]1NC(=O)[C@H](CCCCN)NC(=O)[C@H](Cc2c[nH]c3ccncc23)NC(=O)[C@H](Cc2ccc(O)cc2)NC(=O)[C@H](CCSCC(=O)NCCCCCCNC(=O)CN2CCN3CCN4CCN(CC2)CC(=O)[O][Lu]([O]C(=O)C3)[O]C(=O)C4)N(C)C(=O)[C@H](Cc2ccccc2)NC1=O [RB-0005903] (cyclo(F[NMehCys](DOTA(Lu)NH(CH2)6NHCOCH2)Y[X19]KT)) | < 1 | – |
| C[C@@H](O)[C@@H]1NC(=O)[C@H](CCCCN)NC(=O)[C@H](Cc2c[nH]c3ccccc23)NC(=O)[C@H](Cc2ccc(O)cc2)NC(=O)[C@H](CCSCC(=O)NCCCCCCNC(=O)CN2CCN3CCN4CCN(CC2)CC(=O)[O][Lu]([O]C(=O)C3)[O]C(=O)C4)N(C)C(=O)[C@H](Cc2ccccc2)NC1=O [RB-0005905] | – | < 1 |
| C[C@@H](O)[C@@H]1NC(=O)[C@H](CCCCN)NC(=O)[C@H](Cc2c[nH]c3ccccc23)NC(=O)[C@H](Cc2ccc(O)cc2)NC(=O)[C@H](CCSCC(=O)NCCCCCCNC(=O)CN2CCN3CCN4CCN(CC2)CC(=O)[O][Lu]([O]C(=O)C3)[O]C(=O)C4)N(C)C(=O)[C@H](Cc2ccccc2)NC1=O [RB-0005907] | – | 3.33 to 10 |
| C[C@@H](O)[C@@H]1NC(=O)[C@H](CC2CCNCC2)NC(=O)[C@@H](Cc2c[nH]c3ccccc23)NC(=O)[C@H](Cc2ccc(O)cc2)NC(=O)[C@H](CCCCNC(=O)CN2CCN3CCN4CCN(CC2)CC(=O)[O][Lu]([O]C(=O)C3)[O]C(=O)C4)N(C)C(=O)[C@H](Cc2ccc(O)cc2)NC1=O [RB-0005983] (cyclo([NMeK](DOTA(Lu))Y[dW][Ala(piperidin-4-yl)]TY)) | 3.33 to 10 | – |
| C[C@@H](O)[C@@H]1NC(=O)[C@H](CC2CCNCC2)NC(=O)[C@@H](Cc2c[nH]c3ccccc23)NC(=O)[C@H](Cc2ccc(O)cc2)NC(=O)[C@H](CCCCNC(=O)CN2CCN3CCN4CCN(CC2)CC(=O)[O][Lu]([O]C(=O)C3)[O]C(=O)C4)N(C)C(=O)[C@H](Cc2cccc(O)c2)NC1=O [RB-0005984] (cyclo([NMeK](DOTA(Lu))Y[dW][Ala(piperidin-4-yl)]T[mTyr])) | 1 to 3.33 | – |
| C[C@@H](O)[C@@H]1NC(=O)[C@H](CC2CCNCC2)NC(=O)[C@@H]([C@@H](C)c2c[nH]c3ccccc23)NC(=O)[C@H](Cc2ccc(O)cc2)NC(=O)[C@H](CCCCNC(=O)CN2CCN3CCN4CCN(CC2)CC(=O)[O][Lu]([O]C(=O)C3)[O]C(=O)C4)N(C)C(=O)[C@H](Cc2cccc(O)c2)NC1=O [RB-0005985] (cyclo([NMeK](DOTA(Lu))Y[dTrp(βS-Me)][Ala(piperidin-4-yl)]T[mTyr])) | < 1 | – |
| C[C@@H](O)[C@@H]1NC(=O)[C@H](CC2CCNCC2)NC(=O)[C@@H]([C@@H](C)c2c[nH]c3ccccc23)NC(=O)[C@H](Cc2ccc(O)cc2)NC(=O)[C@H](CCSCC(=O)NCCNC(=O)CN2CCN3CCN4CCN(CC2)CC(=O)[O][Lu]([O]C(=O)C3)[O]C(=O)C4)N(C)C(=O)[C@H](Cc2ccccc2)NC1=O [RB-0005990] (cyclo(F[NMehCys](X17)Y[dTrp(βS-Me)][Ala(piperidin-4-yl)]T)) | < 1 | – |
| C[C@@H](O)[C@@H]1NC(=O)[C@H](CC2CCNCC2)NC(=O)[C@H](Cc2c[nH]c3ccccc23)NC(=O)[C@H](Cc2ccc(O)cc2)NC(=O)[C@H](CCSCC(=O)NCCOCCOCCOCCNC(=O)CN2CCN3CCN4CCN(CC2)CC(=O)[O][Lu]([O]C(=O)C3)[O]C(=O)C4)N(C)C(=O)[C@H](Cc2ccccc2)NC1=O [RB-0005992] (cyclo(F[NMehCys](X6)YW[Ala(piperidin-4-yl)]T)) | 3.33 to 10 | – |
| C[C@@H](O)[C@@H]1NC(=O)[C@H](CC2CCNCC2)NC(=O)[C@@H]([C@@H](C)c2c[nH]c3ccccc23)NC(=O)[C@H](Cc2ccc(O)cc2)NC(=O)[C@H](CCSCC(=O)NCCOCCOCCOCCNC(=O)CN2CCN3CCN4CCN(CC2)CC(=O)[O][Lu]([O]C(=O)C3)[O]C(=O)C4)N(C)C(=O)[C@H](Cc2ccccc2)NC1=O [RB-0005994] (cyclo(F[NMehCys](X6)Y[dTrp(βS-Me)][Ala(piperidin-4-yl)]T)) | < 1 | – |
| C[C@@H](O)[C@@H]1NC(=O)[C@H](Cc2ccc(CN)cc2)NC(=O)[C@@H]([C@@H](C)c2c[nH]c3ccccc23)NC(=O)[C@H](Cc2ccc(O)cc2)NC(=O)[C@H](CCSCC(=O)NCCCCCCNC(=O)CN2CCN3CCN4CCN(CC2)CC(=O)[O][Lu]([O]C(=O)C3)[O]C(=O)C4)N(C)C(=O)[C@H](Cc2ccccc2)NC1=O [RB-0006009] (cyclo(F[NMehCys](DOTA(Lu)NH(CH2)6NHCOCH2)Y[dTrp(βS-Me)][Phe(4-CH2NH2)]T)) | 1 to 3.33 | – |
| CC(C)NCCCC[C@@H]1NC(=O)[C@@H]([C@@H](C)c2c[nH]c3ccccc23)NC(=O)[C@H](Cc2ccc(O)cc2)NC(=O)[C@H](CCSCC(=O)NCCCCCCNC(=O)CN2CCN3CCN4CCN(CC2)CC(=O)[O][Lu]([O]C(=O)C3)[O]C(=O)C4)N(C)C(=O)[C@H](Cc2ccccc2)NC(=O)[C@H]([C@@H](C)O)NC1=O [RB-0006011] (cyclo(F[NMehCys](DOTA(Lu)NH(CH2)6NHCOCH2)Y[dTrp(βS-Me)][Lys(iPr)]T)) | 1 to 3.33 | – |
| C[C@H](c1c[nH]c2ccccc12)[C@@H]1NC(=O)[C@H](Cc2ccc(O)cc2)NC(=O)[C@H](CCSCC(=O)NCCCCCCNC(=O)CN2CCN3CCN4CCN(CC2)CC(=O)[O][Lu]([O]C(=O)C3)[O]C(=O)C4)N(C)C(=O)[C@H](Cc2ccccc2)NC(=O)[C@H]([C@@H](C)O)NC(=O)[C@H](CCCCN)NC1=O [RB-0006019] (cyclo(F[NMehCys](DOTA(Lu)NH(CH2)6NHCOCH2)Y[βMeTrp(2S,3R)]KT)) | < 1 | – |
| C[C@H](c1c[nH]c2ccccc12)[C@@H]1NC(=O)[C@H](Cc2ccc(O)cc2)NC(=O)[C@H](CCCCNC(=O)CN2CCN3CCN4CCN(CC2)CC(=O)[O][Lu]([O]C(=O)C3)[O]C(=O)C4)N(C)C(=O)[C@H](Cc2ccccc2)NC(=O)[C@H]([C@@H](C)O)NC(=O)[C@H](CC2CCNCC2)NC1=O [RB-0006069] (cyclo(F[NMeK](DOTA(Lu))Y[βMeTrp(2S,3R)][Ala(piperidin-4-yl)]T)) | 3.33 to 10 | – |
| Cc1cccc2[nH]cc(C[C@H]3NC(=O)[C@H](Cc4ccc(O)cc4)NC(=O)[C@H](CCSCC(=O)NCCCCCCNC(=O)CN4CCN5CCN6CCN(CC4)CC(=O)[O][Lu]([O]C(=O)C5)[O]C(=O)C6)N(C)C(=O)[C@H](Cc4ccccc4)NC(=O)[C@H]([C@@H](C)O)NC(=O)[C@H](CC4CCNCC4)NC3=O)c12 [RB-0006073] (cyclo(F[NMehCys](DOTA(Lu)NH(CH2)6NHCOCH2)Y[dTrp(4-Me)][Ala(piperidin-4-yl)]T)) | 3.33 to 10 | – |
